According to patent US5475034A, “Topically administrable compositions containing 3-benzoylphenylacetic acid derivatives for treatment of ophthalmic inflammatory disorders” (Alcon Laboratories, Inc., priority 1994, dated 1995):
Read-outs that look alike come from different tables or passages of the source.

Columns and labels:
[1] = biological target: T1, prostaglandin H synthase (cyclooxygenase) (Ovis aries, UniProt P05979); assay: In vitro inhibition of cyclooxygenase (polarographic oxygen consumption, conversion of arachidonic acid to prostaglandin H2); format: biochemical, sheep; settings: for IC50: sheep vesicular gland microsomal enzyme, pH 7.4, 30° C.; for less effective inhibitors of cyclooxygenase activity in vitro: versus free carboxylic acid analogues
T1 construct: sheep vesicular gland microsomal powder; from tissue; host or cells: sheep vesicular gland (lipid-depleted microsomal powder, solubilized)
T1 sequence (P05979 25-600): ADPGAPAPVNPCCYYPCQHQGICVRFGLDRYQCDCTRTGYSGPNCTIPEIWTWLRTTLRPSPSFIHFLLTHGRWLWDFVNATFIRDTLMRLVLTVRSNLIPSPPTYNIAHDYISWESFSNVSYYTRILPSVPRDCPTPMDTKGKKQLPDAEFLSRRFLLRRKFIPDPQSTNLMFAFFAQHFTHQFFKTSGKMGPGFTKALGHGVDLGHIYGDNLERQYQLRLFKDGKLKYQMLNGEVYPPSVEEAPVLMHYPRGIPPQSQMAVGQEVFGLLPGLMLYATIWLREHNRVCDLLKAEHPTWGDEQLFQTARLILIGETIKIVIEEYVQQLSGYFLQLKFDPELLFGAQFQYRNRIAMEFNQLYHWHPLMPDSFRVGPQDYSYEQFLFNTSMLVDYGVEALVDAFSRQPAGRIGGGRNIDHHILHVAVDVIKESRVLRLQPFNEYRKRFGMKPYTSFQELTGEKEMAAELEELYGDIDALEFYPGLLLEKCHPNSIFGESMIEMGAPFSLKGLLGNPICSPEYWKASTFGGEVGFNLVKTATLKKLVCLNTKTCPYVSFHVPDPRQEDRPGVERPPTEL
Experimental: In vitro anti-inflammatory activity of 2-amino-3-benzoylbenzeneacetic acid analogues was tested by polarographically monitoring the inhibition in the rate of oxygen consumption (Cook H. W., Ford G., and Lands WEM, Anal. Biochem. 96:341, 1979) in the conversion of arachidonic acid to prostaglandin H2 by prostaglandin H synthase (cyclooxygenase). Cyclooxygenase enzyme was prepared by solubilizing 20 mg of lipid-depletedsheep vesicular gland microsomal powder (Graff G., Stephenson J. H., et al., J. Biol. Chem. 253:7662, 1978) in 1.0 mL of buffer containing 50 mM phosphate, 5 mM diethyldithiocarbamic acid, and 2 μM hematin (pH 7.4). Incubations were carried out at 30° C. with a YSI-oxygen monitor (Model 53) in 50 mM phosphate/0.5 mM phenol buffer (pH 7.4) as described elsewhere (Graff G., and Anderson L. A., Prostaglandins 38:473, 1989).

[2] = test system: iris/ciliary body prostaglandin synthesis; assay: Ex vivo inhibition of iris/ciliary body prostaglandin synthesis after topical dosing; format: in vivo, New Zealand Albino (NZA) rabbits; settings: for inhibition in vivo at 0.1 %: Oryctolagus cuniculus, 1 h, single topical dose of 0.1% drug solution/suspension 60 minutes prior to iris/ciliary body isolation, read-out: Ex Vivo Iris/Ciliary Body Total Prostaglandin Synthesis Inhibition
Experimental: Ex vivo anti-inflammatory activity of 2-amino-3-benzoylbenzeneacetic acid analogues was evaluated in naive New Zealand Albino (NZA) rabbits. In this test animals were dosed bilaterally with a single 50 μL aliquot of a 0.1% solution/suspension of vehicle, formulated test or reference compound. After 60 minutes of treatment, animals were euthanized, iris/ciliary body (ICB) quickly excised and placed into ice-cold PBS buffer (pH 7.4). The tissue was then weighed, homogenized in ice-cold 50 mM phosphate/0.5 mM phenol buffer (pH 7.4) and incubated for 10 minutes at 37° C. with 10 μM of [1-^14 C]-20:4.

[3] = test system: trauma-induced breakdown of the blood-aqueous-barrier; assay: In vivo trauma-induced (paracentesis) breakdown of the blood-aqueous-barrier: aqueous humor PGE2 and protein; set-up: species or system New Zealand Albino (NZA) rabbits; settings: for inhibition in vivo at 0.1 %: Oryctolagus cuniculus, 0.5 h, read-out: In Vivo Paracentesis Protein Extravasation Inhibition
Experimental: In vivo anti-inflammatory activity of 2-amino-3-benzoylbenzeneacetic acid analogues was evaluated in the model of trauma-induced breakdown of the blood-aqueous-barrier in New Zealand Albino (NZA) rabbits. Animals were anesthetized prior to bilateral administration of a single topical 50 μL dose of a 0.1% solution/suspension of formulated test or reference compound. After 45 minutes of treatment ocular trauma was induced by paracentesis.

[4] = single topical dose of 0.1% drug solution/suspension 45 minutes prior to paracentesis, plasma protein influx into aqueous humor
[5] = single topical dose of 0.1% drug solution/suspension 45 minutes prior to paracentesis

Row | SMILES | IC50 [1] | less effective inhibitors of cyclooxygenase activity in vitro [1] | inhibition in vivo at 0.1 % [2] | inhibition in vivo at 0.1 % [3, 4] | In Vivo Aqueous Humor PGE2 Accumulation Inhibition [3, 5] | spectrum of inhibition of iris/ciliary body prostaglandins ([2]; individual prostaglandins) | ex vivo iris/ciliary body prostaglandin synthesis inhibition, result in words ([2]; rabbit, in vivo) | in vitro cyclooxygenase inhibition, result in words [1] | inhibition in vivo at 0.1 % [3] | in vivo anti-inflammatory activity, result in words ([3]; plasma protein influx and aqueous humor PGE2 accumulation) | in vivo anti-inflammatory activity, result in words [3]
1 | NC(=O)Cc1cccc(C(=O)c2ccc(F)cc2)c1N [Compound 7, 2-Amino-3-(4-fluorobenzoyl)-phenylacetamide] | 133 µM | ≥ 3 orders of magnitude | 27% | 72% | 98% | – | – | – | – | – | –
2 | Nc1c(CC(=O)O)cccc1C(=O)c1ccc(F)cc1 [4'-F OH, reference compound] | 0.171 µM | – | – | 42% | – | – | – | – | – | – | –
3 | NC(=O)Cc1cccc(C(=O)c2ccc(Br)cc2)c1N [Compound 15, 2-Amino-3-(4-bromobenzoyl)-phenylacetamide] | 19 µM | ≥ 3 orders of magnitude | 23% | 64% | 97% | – | – | – | – | – | –
4 | NC(=O)Cc1cccc(C(=O)c2ccccc2)c1N [Compound 8, 2-Amino-3-benzoyl-phenylacetamide] | 64 µM | ≥ 3 orders of magnitude | 81% | 61% | 98% | inhibited to a similar extent | most effective inhibitor | – | – | – | –
5 | CNC(=O)Cc1cccc(C(=O)c2ccc(Br)cc2)c1N [Compound 16, 2-Amino-3-(4-bromobenzoyl)-N-methyl phenylacetamide] | 16 µM | ≥ 3 orders of magnitude | 48% | 62% | 93% | – | – | – | – | – | –
6 | O=C(O)Cc1ccccc1Nc1c(Cl)cccc1Cl [Diclofenac, reference compound] | – | – | 50% | – | 97% | – | – | somewhat less effective | 54% | somewhat less effective | –
7 | Nc1c(CC(=O)O)cccc1C(=O)c1ccc(Cl)cc1 [4'-Cl OH, 2-amino-3-(4-chloro-benzoyl)benzeneacetic acid, reference compound] | 0.07 µM | – | – | 72% | 99% | – | – | – | – | – | –
8 | NC(=O)Cc1cccc(C(=O)c2ccc(Cl)cc2)c1N [Compound 9, 2-Amino-3-(4-chlorobenzoyl)-phenylacetamide] | > 100 µM | ≥ 3 orders of magnitude | 29% | 65% | 98% | – | – | – | – | – | –
9 | Nc1c(CC(=O)O)cccc1C(=O)c1ccccc1 [Amfenac, 2-amino-3-benzoylbenzeneacetic acid, reference compound] | 0.25 µM | – | – | 41% | – | – | – | – | – | – | –
10 | CCOC(=O)Cc1cccc(C(=O)c2ccc(Br)cc2)c1N [Compound 14, Ethyl-2-Amino-3-(4-bromobenzoyl)benzene acetate] | > 25 µM | – | 33% | 60% | – | – | – | – | – | – | –
11 | Nc1c(CC(=O)O)cccc1C(=O)c1ccc(Br)cc1 [Bromfenac, reference compound] | 0.029 µM | – | 44% | 62% | 98% | – | – | – | – | – | –
12 | CN(C)C(=O)Cc1cccc(C(=O)c2ccc(Br)cc2)c1N [4'-Br N(CH3)2, reference compound] | > 100 µM | – | – | 2% | -27% | – | – | inactive | – | – | inactive
